We go through three molecules from ChEMBL document CHEMBL5649166, “RIP3 induces apoptosis independent of pronecrotic kinase activity” (Mol Cell, 2014).

The target in assay [1] is T1, Ephrin type-A receptor 1 (Homo sapiens) (UniProt P21709).
T1 sequence (whole entry): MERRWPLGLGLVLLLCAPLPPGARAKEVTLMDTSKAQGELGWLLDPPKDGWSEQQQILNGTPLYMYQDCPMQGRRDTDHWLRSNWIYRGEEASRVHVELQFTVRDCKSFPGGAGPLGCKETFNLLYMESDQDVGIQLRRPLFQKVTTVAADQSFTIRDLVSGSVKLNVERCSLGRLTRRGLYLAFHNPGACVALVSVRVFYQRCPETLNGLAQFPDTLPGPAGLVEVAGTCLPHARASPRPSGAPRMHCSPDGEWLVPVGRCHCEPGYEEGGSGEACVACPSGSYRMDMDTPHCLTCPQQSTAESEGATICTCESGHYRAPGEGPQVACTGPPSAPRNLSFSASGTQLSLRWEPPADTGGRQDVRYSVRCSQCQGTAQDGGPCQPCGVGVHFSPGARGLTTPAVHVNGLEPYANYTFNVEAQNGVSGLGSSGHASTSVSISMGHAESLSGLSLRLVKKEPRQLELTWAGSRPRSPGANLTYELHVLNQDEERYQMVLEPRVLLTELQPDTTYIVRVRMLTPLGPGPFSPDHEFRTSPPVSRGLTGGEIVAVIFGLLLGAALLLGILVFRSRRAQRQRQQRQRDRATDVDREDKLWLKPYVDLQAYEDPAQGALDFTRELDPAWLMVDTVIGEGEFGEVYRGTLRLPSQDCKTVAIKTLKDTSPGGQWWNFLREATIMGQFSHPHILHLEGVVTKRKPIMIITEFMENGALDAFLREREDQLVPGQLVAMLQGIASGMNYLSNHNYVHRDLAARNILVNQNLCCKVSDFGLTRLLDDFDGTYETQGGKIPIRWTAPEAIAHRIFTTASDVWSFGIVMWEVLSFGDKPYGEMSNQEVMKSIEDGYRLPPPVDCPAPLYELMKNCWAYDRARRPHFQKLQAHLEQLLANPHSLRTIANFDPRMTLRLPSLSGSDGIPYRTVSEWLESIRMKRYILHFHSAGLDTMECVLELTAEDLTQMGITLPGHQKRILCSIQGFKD
The experiment in a line: Residual activity of human EPHA1 using poly[Glu:Tyr] (4:1) as substrate at 1 uM in presence of 32P-ATP by Hotspot assay relative to control.

Assay [2] has as its target SRSF protein kinase 2 (Homo sapiens) (UniProt P78362). The experiment in a line: Inhibition of human SRPK2 using GRSRSRSRSR as substrate at 1 uM in presence of 32P-ATP by Hotspot assay relative to control; values are per cent of control.
The target of assay [3] is Activin receptor type-1-like (Homo sapiens) (UniProt P37023). The assay can be described thus: Inhibition of human ALK1/ACVRL1 using casein as substrate at 1 uM in presence of 32P-ATP by Hotspot assay relative to control; values are per cent of control.
Assay [4] addresses T2, Protein kinase C zeta type (Homo sapiens) (UniProt Q05513).
T2 sequence (whole entry): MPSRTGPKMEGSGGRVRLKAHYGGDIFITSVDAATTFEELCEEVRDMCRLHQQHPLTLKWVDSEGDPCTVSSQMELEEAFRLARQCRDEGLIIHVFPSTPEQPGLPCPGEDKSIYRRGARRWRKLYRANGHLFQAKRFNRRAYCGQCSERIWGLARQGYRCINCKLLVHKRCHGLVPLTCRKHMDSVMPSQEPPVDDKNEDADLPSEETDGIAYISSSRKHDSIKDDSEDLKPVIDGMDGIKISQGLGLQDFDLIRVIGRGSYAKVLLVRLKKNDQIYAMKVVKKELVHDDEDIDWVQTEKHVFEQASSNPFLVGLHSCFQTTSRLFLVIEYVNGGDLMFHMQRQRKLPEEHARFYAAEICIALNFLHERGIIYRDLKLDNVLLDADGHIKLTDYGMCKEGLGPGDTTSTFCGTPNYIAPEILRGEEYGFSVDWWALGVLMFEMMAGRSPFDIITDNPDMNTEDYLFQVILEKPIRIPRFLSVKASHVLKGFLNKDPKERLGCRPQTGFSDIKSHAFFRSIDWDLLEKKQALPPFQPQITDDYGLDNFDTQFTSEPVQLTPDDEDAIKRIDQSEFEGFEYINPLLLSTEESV
The assay can be described thus: Inhibition of human PKCzeta using ERMRPRKRQGSVRRRV as substrate at 1 uM in presence of 32P-ATP by Hotspot assay relative to control; values are per cent of control.

For assay [5], the target named is Ephrin type-A receptor 5 (Homo sapiens) (UniProt P54756). The assay can be described thus: Inhibition of human EPHA5 using poly[Glu:Tyr] (4:1) as substrate at 1 uM in presence of 32P-ATP by Hotspot assay relative to control; values are per cent of control.
The next assay is filed under the species Homo sapiens. The experiment in a line: Inhibition of human CDK7/cyclin H using myelin basic protein as substrate at 1 uM in presence of 32P-ATP by Hotspot assay relative to control; values are per cent of control.
Assay [6] deals with T3, Inhibitor of nuclear factor kappa-B kinase subunit beta (Homo sapiens) (UniProt O14920).
T3 sequence (whole entry): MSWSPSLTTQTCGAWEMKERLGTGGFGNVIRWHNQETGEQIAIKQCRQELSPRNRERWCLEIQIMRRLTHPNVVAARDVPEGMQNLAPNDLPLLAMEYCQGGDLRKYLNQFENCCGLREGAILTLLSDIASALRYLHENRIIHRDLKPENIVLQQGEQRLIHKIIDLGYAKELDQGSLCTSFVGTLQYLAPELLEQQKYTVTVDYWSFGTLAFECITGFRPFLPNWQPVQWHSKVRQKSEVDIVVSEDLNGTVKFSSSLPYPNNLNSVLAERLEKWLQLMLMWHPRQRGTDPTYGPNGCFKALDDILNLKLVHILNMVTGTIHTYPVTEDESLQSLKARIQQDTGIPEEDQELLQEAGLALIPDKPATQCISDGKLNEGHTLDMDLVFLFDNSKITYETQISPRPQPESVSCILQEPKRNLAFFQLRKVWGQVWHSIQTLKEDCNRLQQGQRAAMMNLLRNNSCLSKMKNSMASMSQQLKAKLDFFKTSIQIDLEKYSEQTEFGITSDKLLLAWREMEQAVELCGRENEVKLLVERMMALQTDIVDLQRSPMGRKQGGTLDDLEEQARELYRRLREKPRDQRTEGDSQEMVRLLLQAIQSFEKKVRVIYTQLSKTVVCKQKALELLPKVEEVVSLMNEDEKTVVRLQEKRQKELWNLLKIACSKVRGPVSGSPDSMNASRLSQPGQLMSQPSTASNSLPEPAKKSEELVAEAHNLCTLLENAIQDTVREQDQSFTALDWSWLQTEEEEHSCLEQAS
The assay can be described thus: Inhibition of human IKKb/IKBKB using KKKKERLLDDRHDSGLDSMKDEE as substrate at 1 uM in presence of 32P-ATP by Hotspot assay relative to control; values are per cent of control.

Chain of Activin receptor type-1-like (Homo sapiens) (P37023 whole entry): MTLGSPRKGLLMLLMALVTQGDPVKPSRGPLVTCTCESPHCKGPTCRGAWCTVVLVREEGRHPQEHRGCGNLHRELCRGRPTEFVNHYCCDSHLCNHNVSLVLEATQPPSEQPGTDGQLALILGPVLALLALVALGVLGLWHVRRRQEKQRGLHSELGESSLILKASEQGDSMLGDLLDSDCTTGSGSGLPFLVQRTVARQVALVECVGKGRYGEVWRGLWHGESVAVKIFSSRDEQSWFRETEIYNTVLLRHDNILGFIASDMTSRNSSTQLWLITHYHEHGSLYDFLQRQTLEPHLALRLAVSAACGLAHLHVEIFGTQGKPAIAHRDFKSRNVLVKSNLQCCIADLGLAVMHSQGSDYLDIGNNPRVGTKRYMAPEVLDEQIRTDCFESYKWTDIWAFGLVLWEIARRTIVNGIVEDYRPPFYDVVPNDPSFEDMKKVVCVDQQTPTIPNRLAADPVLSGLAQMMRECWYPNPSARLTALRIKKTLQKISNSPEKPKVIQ
Chain of SRSF protein kinase 2 (Homo sapiens) (P78362 whole entry, looked up): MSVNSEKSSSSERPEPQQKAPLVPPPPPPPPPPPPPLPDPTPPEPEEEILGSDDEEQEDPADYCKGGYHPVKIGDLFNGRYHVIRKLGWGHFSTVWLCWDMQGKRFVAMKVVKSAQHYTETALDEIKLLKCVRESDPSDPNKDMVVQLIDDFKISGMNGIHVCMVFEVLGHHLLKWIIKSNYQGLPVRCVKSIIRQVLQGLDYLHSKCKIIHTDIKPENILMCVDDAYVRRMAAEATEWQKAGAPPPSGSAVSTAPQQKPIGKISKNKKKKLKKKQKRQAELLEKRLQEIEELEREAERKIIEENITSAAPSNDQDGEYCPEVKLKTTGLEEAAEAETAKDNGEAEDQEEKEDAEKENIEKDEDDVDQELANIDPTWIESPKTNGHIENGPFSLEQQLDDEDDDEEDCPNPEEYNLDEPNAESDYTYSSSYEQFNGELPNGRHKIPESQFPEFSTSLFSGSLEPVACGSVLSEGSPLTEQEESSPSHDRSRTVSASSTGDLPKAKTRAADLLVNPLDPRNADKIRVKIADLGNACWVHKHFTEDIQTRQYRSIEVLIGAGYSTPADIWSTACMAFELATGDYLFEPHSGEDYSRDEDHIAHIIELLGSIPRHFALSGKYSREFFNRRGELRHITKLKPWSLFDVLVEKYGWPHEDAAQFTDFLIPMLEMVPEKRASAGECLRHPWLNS
Chain of Ephrin type-A receptor 5 (Homo sapiens) (P54756 whole entry): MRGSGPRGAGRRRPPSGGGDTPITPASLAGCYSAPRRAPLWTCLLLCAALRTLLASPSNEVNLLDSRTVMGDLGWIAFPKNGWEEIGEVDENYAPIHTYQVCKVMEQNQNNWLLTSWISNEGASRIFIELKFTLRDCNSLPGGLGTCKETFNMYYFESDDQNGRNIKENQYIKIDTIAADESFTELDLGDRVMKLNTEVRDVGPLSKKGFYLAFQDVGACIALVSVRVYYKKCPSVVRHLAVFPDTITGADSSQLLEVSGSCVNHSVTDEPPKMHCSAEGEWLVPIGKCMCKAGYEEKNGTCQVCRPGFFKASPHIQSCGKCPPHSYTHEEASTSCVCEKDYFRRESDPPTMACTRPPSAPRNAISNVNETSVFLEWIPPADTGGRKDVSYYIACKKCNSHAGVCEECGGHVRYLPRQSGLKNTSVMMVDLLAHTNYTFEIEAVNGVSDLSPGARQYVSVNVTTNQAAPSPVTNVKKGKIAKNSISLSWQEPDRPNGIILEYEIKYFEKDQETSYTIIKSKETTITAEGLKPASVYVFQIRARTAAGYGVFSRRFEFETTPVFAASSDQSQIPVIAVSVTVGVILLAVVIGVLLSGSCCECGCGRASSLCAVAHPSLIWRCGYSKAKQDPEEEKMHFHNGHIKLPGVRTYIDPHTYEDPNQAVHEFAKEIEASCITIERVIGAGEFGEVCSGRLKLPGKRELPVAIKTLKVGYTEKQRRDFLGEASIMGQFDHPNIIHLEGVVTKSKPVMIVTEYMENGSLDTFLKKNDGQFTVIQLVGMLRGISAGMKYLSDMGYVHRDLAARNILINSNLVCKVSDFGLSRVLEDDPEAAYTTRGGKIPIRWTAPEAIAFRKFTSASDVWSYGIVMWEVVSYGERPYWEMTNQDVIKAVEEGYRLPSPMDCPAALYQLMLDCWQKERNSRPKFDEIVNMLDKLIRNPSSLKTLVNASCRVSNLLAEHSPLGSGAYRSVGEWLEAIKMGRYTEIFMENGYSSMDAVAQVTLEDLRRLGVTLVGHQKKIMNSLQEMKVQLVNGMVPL

Broadly, the residual activity is the signal under treatment as a percentage of the control signal. As to `CNC(=O)c1ccc2c(c1)ncn2-c1ccc(CC(=O)OC(C)(C)C)cc1`, the residual activity in assay [1] came to 84.8%; in assay [2], 98.5%; in assay [3], 95.4%; in assay [4] it was 96.4%; in assay [5], 96.7%; in the assay listed under Homo sapiens it was 96.2%. For the same molecule, in assay [6], the residual activity is 90.2%.

`Cc1cc(-c2cnc(N)c3c(-c4ccc5scnc5c4)csc23)n(C)n1`: the residual activity amounted to 56.5% in assay [1]; 96.2% in assay [2]; 93.9% in assay [3]; 101% in assay [4]; 53.4% in assay [5]; 94.2% in the assay listed under Homo sapiens. Besides, in assay [6], the residual activity is 104%.

On to `CC(C)S(=O)(=O)c1ccc2nccc(Nc3ccc4scnc4c3)c2c1`, for which the residual activity in assay [1] came to 53.9%; in assay [2], 94%; in assay [3] it was 102%; in assay [4] it was 96.3%; in assay [5] it was 70.6%; in the assay listed under Homo sapiens, 97.7%. The residual activity in assay [6] worked out at 93.3%.
